Results on 1 compound are retold here after patent publication US12053533B2, “Fluorescent probe for cyclooxygenase-2” (The Board of Trustees of the University of Illinois, priority 2020, dated 2024).

Data set [1] is described as follows: Photophysical characterization. Format: physicochemical. Here is the method:
Photophysical Characterization. Extinction coefficients and fluorescence quantum yields were acquired (n=3) and reported as the average with a relative standard deviation less than 15%. Extinction coefficients were acquired by titrating compound in 100 mM Tris-HCl (pH 8.0) within the linear range. Fluorescence quantum yields were obtained using the modified method for relative fluorescence quantum yield. Dye was titrated into the solution and the absorbance and emission were monitored (excitation at 540 nm). The absorbance was maintained below 0.1 to limit secondary absorbance events. Total emission spectra were integrated, and the relative quantum yield was calculated relative to Rhodamine B (ϕ=0.70, ethanol). The refractive index of 100 mM Tris-HCl (pH 8.0) was measured to be 1.33514.

The nature of data set [2]: CoxFluor, Ctrl-CoxFluor & Resorufin stability assays. Format: physicochemical. The conditions noted are these: 8 hours at room temperature or 37° C., with or without ambient light. The procedure:
CoxFluor, Ctrl-CoxFluor & Resorufin Stability Assays. Stability assays were performed for a 10 μM solution of each compound in a series of buffers/solvents (100 mM Tris-HCl at pH 8.0, DMEM with 10% FBS, DMEM without serum and DMSO). Stability was assessed at room temperature or at 37° C. and in the presence or absence of ambient light. Fluorescence was measured using the plate reader with excitation at 540 nm and emission from 560-700 nm and the relative turn-on was determined by the change of fluorescence intensity at 590 nm.

For data set [3], the system named is RAW 264.7 macrophage cells. Nature of the data set: Cell viability (trypan blue exclusion and MTT) in RAW 264.7 macrophage cells. Format: cell-based, mouse. The following applies: 6 h incubation. Here is the method: Trypan Blue Exclusion Cytotoxicity Assay. 6-well plates were seeded with 300,000 cells per well (2 mL of 150,000 cells/mL) and incubated at 37° C. with 5% CO2 for 48 to 72 h (˜60-80% confluent). Media was removed and replaced with either 5, 10, or 25 μM CoxFluor in fresh serum-free DMEM media (1.25% DMSO v/v final concentration). […] The trypsin was quenched with the addition of 1.8 mL DMEM media containing 10% FBS and the cells were mixed thoroughly before diluting 1:1 with trypan blue (0.4% in PBS w/v). Percent viability was measured using a Countess® II FL Automated Cell Counter (Thermo Fisher Scientific), where the parameters were optimized to identify live and dead cells. Viability was calculated by the relative to the vehicle control.
MTT Cytotoxicity Assay. […] The media was removed at various time points (3 or 6 h) and replaced with 200 μL 20:1 mixture of FBS-free DMEM and (3-(4,5-dimethylthiazol-2-yl)-2,5-diphenyl-tetrazolium bromide (MTT, 5 mg/mL stock in PBS). The cells were incubated for 4 h under the same conditions and then the medium was removed and replaced with DMSO (200 μL/well). The absorbance of each well was recorded after a 1:5 dilution in DMSO at 555 nm on a microplate reader. Viability was calculated by the absorbance relative to the vehicle control.

Data set [4] relates to COX-2 activity in RAW 264.7 macrophage lysates. The experiment in a line: RAW 264.7 macrophage lysate COX-2 activity assay. Format: cell-based, mouse. The conditions noted are these: NEM 1 mM, CoxFluor readout.
Data set [5] relates to COX-2 activity in RAW 264.7 macrophage cells. Nature of the data set: Flow cytometry of LPS-induced COX-2 activity in RAW 264.7 macrophages. The following applies: CoxFluor 10 μM. Format: cell-based, mouse. The text has this:
Flow Cytometry of Lipopolysaccharide-induced COX-2 Expression in RAW 264.7 Macrophages. […] After staining, cells were pelleted using the aforementioned procedure and were resuspended in PBS. […] Replicate numbers correspond to biological replicates.
On the technique in general: A flow cytometer gives signals particle by particle.

The target of a further data set is T1, COX-2 (Homo sapiens, UniProt P35354).
T1 sequence (P35354 18-604): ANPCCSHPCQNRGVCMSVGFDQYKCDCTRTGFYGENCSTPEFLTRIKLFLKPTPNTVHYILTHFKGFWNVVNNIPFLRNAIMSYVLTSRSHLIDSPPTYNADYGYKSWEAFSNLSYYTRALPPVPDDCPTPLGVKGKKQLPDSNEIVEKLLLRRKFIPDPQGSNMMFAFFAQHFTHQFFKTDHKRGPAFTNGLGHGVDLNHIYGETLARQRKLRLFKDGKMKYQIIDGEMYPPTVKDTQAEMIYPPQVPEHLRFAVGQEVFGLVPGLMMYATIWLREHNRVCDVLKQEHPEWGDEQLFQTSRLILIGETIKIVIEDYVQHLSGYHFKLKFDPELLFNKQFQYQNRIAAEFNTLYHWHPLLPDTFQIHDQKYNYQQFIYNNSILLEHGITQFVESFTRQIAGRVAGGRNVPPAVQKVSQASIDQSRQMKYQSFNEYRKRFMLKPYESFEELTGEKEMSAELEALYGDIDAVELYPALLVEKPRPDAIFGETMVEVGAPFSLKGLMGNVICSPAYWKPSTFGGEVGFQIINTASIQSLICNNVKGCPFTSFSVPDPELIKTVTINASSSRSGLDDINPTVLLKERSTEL
Nature of the data set: COX-2 fluorescence assay with CoxFluor (fluorimeter / plate reader). Format: biochemical. The arrangement: made in house. Here is the method: Fluorimeter Fluorescence Assay. The fluorescence assays were performed in microquartz cuvettes or submicroquartz cuvettes with a maximum volume of 600 μL. Reactions were monitored at room temperature using 540 nm excitation and emission was collected from 550-700 nm with a slit width of 1.25 mm. Total volumes of the reaction mixtures were maintained at 570 μL. […] Experiments in the presence of reduced GSH were conducted according to the same procedure, but GSH (30 μL, 19 mM in 100 mM Tris-HCl, pH 8.0) was added before the addition of CoxFluor for a final concentration of 1 mM. Assays performed in submicroquartz cuvettes were performed maintaining the same ratios, but with a final volume of 142.5 μL.
Plate Reader Fluorescence Assay. The fluorescence assays were performed at room temperature using 540 nm excitation and 590 nm emission. Total volume of the reaction mixture was maintained at 190 μL. […] Inhibition assays were performed according to the same procedure, but COX-2 was preincubated with hemin and inhibitor for 0.5 h at 0° C. before initiation with CoxFluor. Relative fluorescence enhancement is calculated by comparing to a buffer control with 10 μM CoxFluor.

Take `CCCCC/C=C\C/C=C\C/C=C\C/C=C\CCCC(=O)N1c2ccc(O)cc2Oc2cc(O)ccc21` [CoxFluor]: the “extinction coefficient ε at 572 nm” value in data set [1] (100 mM Tris-HCl pH 8.0) amounted to 820 M⁻¹ cm⁻¹. Besides, the “fluorescence quantum yield ΦF” value in data set [1] (100 mM Tris-HCl pH 8.0, relative to Rhodamine B) was determined as 0.29. The “stability in Tris-HCl and DMEM buffer systems” value in data set [2] is listed as “stable”. For the same compound, the cell viability entry in data set [3] was “suitable viability”. The “maximum increase in COX-2 activity in lysates” value in data set [4] (19 hr LPS activation) came to 17.6 fold. For the same compound, in data set [4] (within the first 4 hr of LPS activation), the “increase in COX-2 activity in lysates” value turned out to be 2.4 fold. The “increase in median fluorescence, cells activated 19 hr compared to 4 hr” value in data set [5] (after BSO pre-treatment) turned out to be 1.6 fold. The “increase in activity after 19 hr LPS-activation relative to 4 hr” value in data set [5] (without GSH depletion) amounted to 1.2 fold. Moreover, the “measured rate for turnover relative to natural substrate cyclooxygenase activity” value on COX-2 is recorded as at most 100 fold. Besides, the fluorescent turn-on response on COX-2 (CoxFluor 10 μM, COX-2 250 nM, hemin 1 μM, 4 h, room temperature, 100 mM Tris HCl pH 8.0) is listed as 41 fold. In addition, on COX-2 (glutathione 1 mM, COX-2 250 nM), the “COX-2-specific fluorescence enhancement in the presence of glutathione” value was “maintained significant COX-2-specific fluorescence enhancements”.
